Test results taken from patent publication US20080095754A1, “OPHTHALMIC COMPOSITIONS COMPRISING DIGLYCINE” (priority 2006, published 2008).
Residues, ends and D or L forms follow the SMILES beside them.

How the values were obtained:
lysozyme [1] = assay: VP-DSC thermal unfolding of lysozyme in formulated solutions; type: physicochemical; settings: for increase in the melting temperature of lysozyme: in both VP-DSC and CD; for reversibility of thermal denaturation / refolding of lysozyme, VP-DSC: second scan
Description: (§1) To evaluate the effect of diglycine on the conformational stability of lysozyme, Formulations 1 and 2 as well as a formulation without diglycine were analyzed by differential scanning calorimetry (DSC) and circular dichroism (CD). Before DSC and CD analysis, a lysozyme solution was prepared in borate buffer, pH 7.3 (sodium borate, 0.09%; boric acid, 0.85%; sodium chloride, 0.22%) at a concentration of 5 mg/mL, and was dialyzed against the formulated solutions containing 0, 1 (Formulation 1), and 3% (Formulation 2) diglycine, at 2-8° C. for 16 hours. Thermal scans were preformed twice to investigate the reversibility of thermal unfolding for both DSC and CD. This study examines the values of melting temperature (Tm), unfolding enthalpies (ΔH), and the ability of the lysozyme to refold upon unfolding for each of the three formulations because these parameters, in general, predict the thermostability of a protein and approximates the susceptibility of a protein to aggegrate and other irreversible changes at lower temperatures.
For the DSC analysis, thermograms were obtained on a VP-DSC (Microcal, USA) at a scan rate of 90° C. per hour from 10° C. to 95° C. All samples were diluted with the formulated solutions to a concentration of 0.5 mg/mL, and degassed for 4 minutes using a vacuum. The thermograms were corrected for the baseline signal and normalized for protein concentration. Using a non-2-state unfolding model, the Tm and the ΔH were determined by Origin software. […]

lysozyme [2] = assay: Far-UV circular dichroism (CD) thermal melting of lysozyme in formulated solutions; type: physicochemical; settings: for reversibility of thermal denaturation / refolding of lysozyme, CD: second scan; for change of lysozyme Tm, CD: glycerin 1%, trehalose 1% and 5%, alone
Description: as §1
CD spectra were conducted on a Jasco-810 Spectropolarimeter. The far-UV CD studies were preformed in a 1-mm pathlength cell at a protein concentration of 0.2 mg/mL, using a scan rate of 50 nm/min from 190 nm to 260 nm and a scan rate of 1° C./min from 20° C. to 95° C. The melting temperatures and the unfolding enthalpies were determined from the denaturation curved obtained from the dependency of the mean residue ellipticity at 230 nm on temperature.
A second experiment screened the additives glycerin, trehalose, and hyaluronic acid (HA) in combination with 1% diglycine, for their ability to stabilize the conformation of lysozyme. VP-DSC and CD were again used to measure the melting temperatures (Tm), unfolding enthalpies (ΔH), and the ability to refold the lysozyme upon unfolding.
Before DSC and CD analysis, the lysozyme solution was prepared in a borate buffer, pH 7.3 (sodium borate, 0.09%; boric acid, 0.85%; sodium chloride, 0.22%) at a concentration of 5 mg/mL. It was then dialyzed against the formulated solutions containing either 1% glycerin, 1% trehalose, 5% trehalose, 1% diglycine and 3% glycerin, or 1% diglycine and 3% trehalose, at 2-8° C. for 16 hours. For the hyaluronic acid formulation, the lysozyme solution was dialyzed against the borate buffer, and subsequently diluted to the desired concentrations with 0.2% of hyaluronic acid for analyses. Thermal scans were performed twice to investigate the reversibility of thermal unfolding for both methods.
The VP-DSC results are supported by the circular dichroism (CD) spectral measurements which were conducted as a function of temperature on a Jasco-810 Spectropolarimeter. The far-UV CD studies were performed in a 1-mm pathlength cell at a protein concentration of 0.2 mg/mL, and a scan rate of 1° C./min form 20° C. to 95° C. The melting temperatures and the Van't Hoff enthalpies were determined from denaturation curves obtained from the mean residue ellipticity at 230 nm as a function of temperature. Tables 2 and 3 summarize the results of the CD measurements and FIGS. 13-18 show the CD-thermal scans.

Structure (SMILES) | increase in the melting temperature of lysozyme (lysozyme [1]; 1% w/w diglycine vs borate buffer) | increase in the melting temperature of lysozyme (lysozyme [1]; 3% w/w diglycine vs borate buffer) | reversibility of thermal denaturation / refolding of lysozyme, VP-DSC (lysozyme [1]) | reversibility of thermal denaturation / refolding of lysozyme, CD (lysozyme [2]) | change of lysozyme Tm, VP-DSC (lysozyme [1]) | change of lysozyme Tm, CD (lysozyme [2])
NCC(=O)NCC(=O)O [diglycine] (H-Gly-Gly-OH) | approximately 2 °C | ~4 °C | at least partially reversible | at least partially reversible |  | 
OCC(O)CO [glycerin] |  |  | not able to refold | partial refolding phenomenon | did not increase | did not increase
OC[C@H]1O[C@H](O[C@H]2O[C@H](CO)[C@@H](O)[C@H](O)[C@H]2O)[C@H](O)[C@@H](O)[C@@H]1O [trehalose] |  |  | not able to refold | not able to refold | did not increase | did not increase
